Experiment in all cases: relative viability (nuclei count vs DMSO), 5 days (fraction); higher = more cells survive
Compound in the assay “SGI-1776 + Linsitinib”: CN1CCC(CNc2ccc3ncc(-c4cccc(OC(F)(F)F)c4)n3n2)CC1 [SGI-1776] + C[C@]1(O)C[C@@H](c2nc(-c3ccc4ccc(-c5ccccc5)nc4c3)c3c(N)nccn32)C1 [Linsitinib] (partner 1 µM)
Summed up: (§1)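 Medians of duplicate plates are given as relative viability. That measure is the nuclei count in treated wells divided by the count in vehicle wells. Counts were taken on 4× images of lung cancer cell lines in 1536-well plates, 5 days after pin-tool dosing the day after seeding with one drug alone or a fixed anchor-drug dose plus five library-drug doses (not always all listed) in √10 steps.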

Compound in the assay “Entinostat + Alpelisib”: Nc1ccccc1NC(=O)c1ccc(CNC(=O)OCc2cccnc2)cc1 [Entinostat] + Cc1nc(NC(=O)N2CCC[C@H]2C(N)=O)sc1-c1ccnc(C(C)(C)C(F)(F)F)c1 [Alpelisib] (partner 2 µM)
The method in brief:
as §1

Compound in the assay “SGI-1776 + Foretinib”: CN1CCC(CNc2ccc3ncc(-c4cccc(OC(F)(F)F)c4)n3n2)CC1 [SGI-1776] + COc1cc2c(Oc3ccc(NC(=O)C4(C(=O)Nc5ccc(F)cc5)CC4)cc3F)ccnc2cc1OCCCN1CCOCC1 [Foretinib] (partner 0.25 µM)
The method in brief: as §1

Compound in the assay “Entinostat + Tozasertib”: Nc1ccccc1NC(=O)c1ccc(CNC(=O)OCc2cccnc2)cc1 [Entinostat] + Cc1cc(Nc2cc(N3CCN(C)CC3)nc(Sc3ccc(NC(=O)C4CC4)cc3)n2)n[nH]1 [Tozasertib] (partner 0.1 µM)
Summed up:
as §1

In the supplement of paper PMC10307832 one finds relative viability data, which are given here for 1 cell line.

Take UMC-11: the relative viability with SGI-1776 + Linsitinib (first compound 0.08 µM) is 1.06; with SGI-1776 + Linsitinib (first compound 0.8 µM), 0.987; with SGI-1776 + Linsitinib (first compound 2.53 µM) it was 0.971; with SGI-1776 + Linsitinib (first compound 8 µM) it was 0.836; in the assay with Entinostat + Alpelisib (first compound 0.02 µM), 1.12; with Entinostat + Alpelisib (first compound 0.06325 µM), 1.01. The relative viability with Entinostat + Alpelisib (first compound 0.2 µM) stood at 0.702; in the assay with Entinostat + Alpelisib (first compound 0.6325 µM), 0.168; in the assay with Entinostat + Alpelisib (first compound 2 µM), 0.116; in the assay with SGI-1776 + Foretinib (first compound 0.08 µM), 1.02; with SGI-1776 + Foretinib (first compound 0.8 µM) it was 1.03; in the assay with SGI-1776 + Foretinib (first compound 2.53 µM) it was 1.08. Besides, the relative viability came to 0.791 with SGI-1776 + Foretinib (first compound 8 µM); 0.218 with Entinostat + Tozasertib (first compound 0.02 µM); 0.201 with Entinostat + Tozasertib (first compound 0.06325 µM); 0.206 with Entinostat + Tozasertib (first compound 0.2 µM); 0.192 in the assay with Entinostat + Tozasertib (first compound 0.6325 µM); 0.163 with Entinostat + Tozasertib (first compound 2 µM).
